Entries after “also recorded” stand apart in the source; their conditions may differ. Where two headings read alike, the source gives them in different places. Square brackets hold non-standard residues; d marks the D form. Peptide text beside a SMILES is read from it. Dap = NC[C@H](N)C(=O)O
Tests used:
[1] = system: Staphylococcus aureus (USA300); assay: Bacterial growth inhibition, Staphylococcus aureus (USA300); assay type: cell-based; conditions: Gram-positive bacterium lacking LPS
Method: (§1) Bacterial growth conditions. LB or Mueller Hinton II cation-adjusted broth (MHB II, BBL 212322) was prepared according to manufacturer's instructions and supplemented with arabinose at 0.02% for overnight growth or at indicated concentrations in the description of the figures. Bacterial cultures were grown at 37° C. When appropriate, media was supplemented with kanamycin (50 μg/mL), carbenicillin (50 μg/mL), chloramphenicol (12.5 or 25 μg/mL), hygromycin (200 μg/mL), and/or gentamicin (10 μg/mL).
(§2) Peptide sensitivity and MIC assays. Lyophilized peptides (Smartox Biotechnology, CPC Scientific. ABclonal) were solubilized to 10 mM in Tris buffer, pH 8, prior to making a 2-fold dilution series in MHBII cation adjusted broth with highest final assay concentration of 400-800 μM. Bacteria were grown to log phase and added to final OD600˜0.001. The final EDTA concentration was 0.5 mM for E. coli strains and 0.125 mM for USA300. The final volume of 10 μL/well in a 384 well black, clear bottom plate (Corning) was spun <1 min at <250×g and then incubated at 37° C. After 4 h, an equal volume (10 μL) of BacTiter-Glo™ (Promega) was added to each well and luminescence was read after 5 min on an EnVision plate reader (PerkinElmer). […] Plates were incubated at 37° C. for 20 h before measuring OD600 with an EnVision plate reader.

E. coli mcr-1 = assay type: cell-based, Escherichia coli; conditions: Table 5; colistin^R
Summary of the method: (§3)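 OD600 after 20 h at 37° C gives the MIC. Cells at final OD600 ~0.0002 in cation-adjusted MHB II face a 2-fold peptide series up to 400-800 μM final, with EDTA at 0.5 mM (E. coli strains) or 0.125 mM (USA300).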

E. coli BW25113 = assay type: cell-based, Escherichia coli; conditions: for MIC: Table 2
Summary of the method: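 For MIC, bacteria (final OD600 ~0.0002) were incubated with 2-fold peptide dilutions (top 400–800 μM) in cation-adjusted MHB II with or without EDTA, 20 h at 37 °C, read by OD600. EDTA was 0.5 mM for E. coli and 0.125 mM for USA300. The growth-inhibition assay used log-phase cells at OD600 ~0.001, 4 h at 37 °C, BacTiter-Glo luminescence.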

[2] = system: E. coli K-12 (pmrA^G53E and mcr-1); assay: MIC against E. coli K-12 with PMX-resistance determinants (summary); assay type: cell-based, Escherichia coli; conditions: range over pmrA and mcr-1 strains
Method: as §1, §2

E. coli imp4213 = assay: MIC assay, E. coli imp4213; assay type: cell-based, Escherichia coli
Summary of the method: as §3

[3] = system: Enterobacter cloacae, Klebsiella pneumoniae, Acinetobacter baumannii, and Pseudomonas aeruginosa; assay: MIC against wild-type bacterial pathogens (summary over species); assay type: cell-based; conditions: range over the four wild-type pathogens
Method: as §1, §2

A. baumannii = assay type: cell-based, Acinetobacter baumannii; conditions: for MIC: Table 3, + EDTA (2 mM)
Summary of the method: as §3

E. coli-ATCC 25922 = assay: MIC assay, E. coli ATCC 25922; assay type: cell-based, Escherichia coli; conditions: Table 5; E. coli ATCC 25922, WT with O-antigen
Method: as §1, §2

E. coli K12 = assay: Time-kill: colony forming units of E. coli K12 over time; assay type: cell-based, Escherichia coli; conditions: E. coli K12, FIG. 16A
P. aeruginosa = assay type: cell-based, Pseudomonas aeruginosa
Summary of the method: as §3

E. cloacae = assay: MIC assay, E. cloacae; assay type: cell-based, Enterobacter cloacae
Method: as §1, §2

red blood cell = assay: Red blood cell lysis assay; assay type: cell-based; conditions: 50 μM, after 4 hrs, FIG. 16B
K. pneumoniae = assay type: cell-based, Klebsiella pneumoniae
Summary of the method: as §3

S. aureus USA300 = assay: MIC assay, S. aureus USA300; assay type: cell-based, Staphylococcus aureus
Summary of the method: as §3

E. coli pmrA^G53Y = assay: MIC assay, E. coli pmrA^G53Y (BW25113); assay type: cell-based, Escherichia coli; conditions: Table 5; colistin^R
Method: as §1, §2

[4] = Biolayer interferometry: captured biotinylated LAB peptides binding to LPS (KDO2-lipid A)
Method: (§4) Biolayer interferometry. Phospholipid (Avanti polar lipids) and KDO2-lipid A (US Biological Life Sciences) stock solutions were prepared by resuspension into 25 mM Tris pH 8, 100 mM NaCl, 0.05% LMNG buffer and solubilized overnight at 4° C. Lipid stocks were diluted prior to experiments into 25 mM Tris pH 8, 100 mM NaCl, 0.5 mg/mL BSA, 0.05% LMNG. All assays were performed at 25° C. in 25 mM Tris pH 8, 100 mM NaCl, 0.5 mg/mL BSA, 0.05% LMNG. Biotinylated-LAB peptides were loaded onto SA biosensors to a response of approximately 0.5 nm. Binding to phospholipids and KDO2-lipid A was measured at concentrations of 150, 100, 50, 25, and 10 μM with 300s association and dissociation steps. Assays were performed in triplicate on an Octet Red384 (ForteBio) and buffer and lipid signals were subtracted by using a biotin-blocked reference streptavidin (SA) biosensor. Dissociation constants for LABWT and LABWT+, interactions with KDO2-lipidA were estimated by plotting response values at equilibrium as a function of concentration and fit to a global specific binding with Hill slope model in Prism (Graphpad Software).
Based on the intriguing chemical characteristics of the LPS-PbgA interface, the possibility that a linear peptide derived from PbgA might selectively bind to LPS in vitro was considered. A peptide encompassing the lipid A-binding (LAB)-motif (209SYPMTARRFLEKHGLLD225; SEQ ID NO: 67) with an additional Gly-Ser-linker and biotin modification was generated and used in an interferometry-based assay. […] Two peptides intended to destabilize essential lipid A binding determinants were tested as controls.

E. coli + FhuAΔC/Δ4L = assay type: cell-based, Escherichia coli; conditions: Table 2; no EDTA
Description: pFhuAΔC/Δ4L was constructed by synthesizing the fhuA coding sequence lacking the N-terminal cork domain, Δ1-160, and extracellular loops L3, L4, L5, and L11 (Mohammad, et al., J Biol Chem 286, 8000-8013, (2011)).fhuAΔcΔ4L was amplified with primers N3P-105 (encoding the bla constitutive promoter, ribosome binding site, and AUG start codon from pUC19 (New England BioLabs) and N3P-107, and cloning into pACYC184 with BamHI and HindIII (New England BioLabs).
as §1
Peptide sensitivity and MIC assays. […] After 4 h, an equal volume (10 μL) of BacTiter-Glo™ (Promega) was added to each well and luminescence was read after 5 min on an EnVision plate reader (PerkinElmer). […] Plates were incubated at 37° C. for 20 h before measuring OD600 with an EnVision plate reader.

E. coli ΔwaaD = assay: MIC assay, E. coli ΔwaaD; assay type: cell-based, Escherichia coli
Method: as §1
(§5) Peptide sensitivity and MIC assays. Lyophilized peptides (Smartox Biotechnology, CPC Scientific. ABclonal) were solubilized to 10 mM in Tris buffer, pH 8, prior to making a 2-fold dilution series in MHBII cation adjusted broth with highest final assay concentration of 400-800 μM. Bacteria were grown to log phase and added to final OD600˜0.001. The final EDTA concentration was 0.5 mM for E. coli strains and 0.125 mM for USA300. The final volume of 10 μL/well in a 384 well black, clear bottom plate (Corning) was spun <1 min at <250×g and then incubated at 37° C. After 4 h, an equal volume (10 μL) of BacTiter-Glo™ (Promega) was added to each well and luminescence was read after 5 min on an EnVision plate reader (PerkinElmer). To measure the minimal inhibitory concentrations (MICs), bacteria from fresh overnight plates or log phase cultures were diluted with or without EDTA and peptides as described above to final OD600˜0.0002. Plates were incubated at 37° C. for 20 h before measuring OD600 with an EnVision plate reader.

E. coli ΔwaaD pmrB^D149Y = assay: MIC assay, E. coli ΔwaaD pmrB^D149Y; assay type: cell-based, Escherichia coli; conditions: Table 4; + EDTA; PMX-resistant
Method: as §1, §2

wild-type E. coli strain = assay: Bacterial growth inhibition, wild-type E. coli strain; assay type: cell-based, Escherichia coli
Method: as §1, §2

E. coli ΔwaaD MCR-1 = assay: MIC assay, E. coli ΔwaaD MCR-1; assay type: cell-based, Escherichia coli; conditions: Table 4; + EDTA; PMX-resistant
Summary of the method: as §3

E. coli = assay: Cell growth inhibition assay with or without EDTA; assay type: cell-based, Escherichia coli; conditions: irrespective of the presence or absence of EDTA (0.5 mM)
Method: as §5
It was reasoned that the relatively large molecular weight (>2 kDa) and limited α-helical propensity of the linear LABWT peptide (SEQ ID NO: 1) might limit its access to LPS in the bacterial OM. […]

[5] = Biolayer interferometry: captured biotinylated LAB peptides binding to phospholipids; parameters: species or system E. coli; conditions: above background
Method: as §4
Based on the intriguing chemical characteristics of the LPS-PbgA interface, the possibility that a linear peptide derived from PbgA might selectively bind to LPS in vitro was considered. […]

## CSCC[C@H](NC(=O)[C@@H]1CCCN1C(=O)[C@H](Cc1ccc(O)cc1)NC(C)=O)C(=O)N[C@@H](CN)C(=O)N[C@@H](Cc1ccccc1)C(=O)N[C@@H](CCCNC(=N)N)C(=O)N[C@@H](CCCNC(=N)N)C(=O)N[C@@H](Cc1ccccc1)C(=O)N[C@@H](CC(C)C)C(=O)N[C@@H](CCC(=O)O)C(=O)N[C@@H](CCCCN)C(=O)N[C@@H](Cc1c[nH]c2ccccc12)C(=O)NCC(=O)N[C@@H](CC(C)C)C(=O)N[C@@H](CC(C)C)C(=O)N[C@@H](CCCNC(=N)N)C(N)=O [SEQ ID NO: 69, YPM(Dap)FRRFLEKWGLLR] (Ac-YPM[Dap]FRRFLEKWGLLR-NH2)
[1]
  growth inhibition: impacted only at very high concentrations
E. coli mcr-1
  MICs: 25 µM
E. coli BW25113; Table 5, E. coli K-12 (BW25113), WT
  MICs: 25 µM
[2]
  MICs: 12.5 to 25 µM
E. coli imp4213; Table 5, permeable
  MICs: 6.25 µM
[3]
  MICs: 12.5 to 200 µM
A. baumannii; Table 5, ATCC 19606, WT
  MICs: 12.5 µM
E. coli-ATCC 25922
  MICs: 50 µM
E. coli K12
  time-kill kinetics (CFUs over time): bactericidal
P. aeruginosa; Table 5, PA-14, WT
  MICs: 200 µM
E. cloacae; Table 5, ATCC 222, WT
  MICs: 12.5 µM
Red blood cell
  red blood cell lysis: no observe lysis
K. pneumoniae; Table 5, ATCC 43816, WT
  MICs: 100 µM
S. aureus USA300; Table 5, USA300 Gram-positive control
  MICs: 400 µM
E. coli pmrA^G53Y
  MICs: 12.5 µM

## Ac-SYPMTARRFLEKWGLLR-NH2 [SEQ ID NO: 68, SYPMTARRFLEKWGLLR]
E. coli BW25113; + 0.5 mM EDTA
  MIC: 200 µM
E. coli BW25113; wild-type strain, no EDTA
  MIC: >800 µM
E. coli imp4213; Table 2, no EDTA
  MIC: 25 µM
A. baumannii
  MIC: 400 µM
A. baumannii; listed as LABWT+
  MIC: 200 µM
P. aeruginosa; Table 3, + EDTA (2 mM)
  MIC: 400 µM
[4]; LABWT+ relative to LABWT
  improved affinity towards LPS: ~1.5 fold
[4]; LPS (KDO2-lipid A), biotinylated peptide on SA biosensor, 25° C., estimated from equilibrium responses
  Kd: ~55 µM
[4]; versus the major PLs found in E. coli
  selective binding to LPS over PLs: maintaining selectivity over PL binding
E. coli + FhuAΔC/Δ4L
  MIC: 50 µM
E. coli ΔwaaD; Table 2, no EDTA
  MIC: 400 µM
E. coli ΔwaaD; Table 4, + EDTA
  MIC: 100 µM
E. cloacae; Table 3, + EDTA (2 mM)
  MIC: 100 µM
E. coli ΔwaaD pmrB^D149Y
  MIC: 100 µM
K. pneumoniae; Table 3, + EDTA (2 mM)
  MIC: >400 µM
S. aureus USA300; Table 2, Gram-positive wild-type strain
  MIC: >800 µM
wild-type E. coli strain
  growth inhibition: failed to inhibit the growth
E. coli ΔwaaD MCR-1
  MIC: 100 µM

## GSSYPMDARRFLEKHGLLD (Ac-GSSYPMDARRFLEKHGLLD-NH2) [SEQ ID NO: 3]
E. coli
  effect on bacterial cell growth: showed no effect on bacterial cell growth
[5]
  binding to PLs: Neither a peptide lacking the α7 helix (LABΔα7; SEQ ID NO: 2) nor a peptide containing the T213D mutation equivalent (LABT213D; SEQ ID NO: 3) showed detectable binding to LPS or PLs above background
[4]; interferometry, above background, listed as LABT213D
  binding to LPS: Neither a peptide lacking the α7 helix (LABΔα7; SEQ ID NO: 2) nor a peptide containing the T213D mutation equivalent (LABT213D; SEQ ID NO: 3) showed detectable binding to LPS or PLs above background; also recorded: failed to bind LPS in vitro
